Reference: article PMC10141580, “Cyclic Dichalcogenides Extend the Reach of Bioreductive Prodrugs to Harness Thiol/Disulfide Oxidoreductases: Applications to seco-Duocarmycins Targeting the Thioredoxin System” (ACS Central Science, 2023)
Values joined by “and” are separate entries in the source; they are usually repeats but may differ in a detail not shown here. Equal values may be shown once. Read-outs that look alike come from different tables or passages of the source.

System: panel of 140 standard cancer cell lines
Assay: ProliFiler-140 cancer cell line screen (CellTiterGlo, 72 h)
Type: cell-based
Procedure: Incubations were performed for 72 h before automated viability readout with CellTiterGlo (Figure 8).
End of Figure S11 (part 5 of 5): ProliFiler-140 cancer cell line screening for cytotoxicity of the prodrugs.
8-data-point dose response curves from CellTiter-Glo® viability readout.
ProliFiler-140 cell line panel part V

COc1cc2cc(C(=O)N3C[C@@H](CCl)c4c3cc(OC(=O)N(CCC(=O)N3CCN(C)CC3)C3CCCCC3)c3ccccc43)[nH]c2c(OC)c1OC [P-CC60-CBI-TMI]
IC50 (MEC-1 (Blood), read-out: IC50 [M] (ProliFiler-140)): 8.9e-08 M and 8.89e-08 M | IC50 (MKN-1 (Stomach), read-out: IC50 [M] (ProliFiler-140)): 1.5e-06 M and 1.53e-06 M | IC50 (MKN-45 (Stomach), read-out: IC50 [M] (ProliFiler-140)): 4.87e-07 M and 4.9e-07 M | IC50 (MOLM-13 (Blood), read-out: IC50 [M] (ProliFiler-140)): 6.1e-08 M and 6.05e-08 M | IC50 (MOLT-4 (Blood), read-out: IC50 [M] (ProliFiler-140)): 7.6e-08 M and 7.57e-08 M | IC50 (MV4-11 (Blood), read-out: IC50 [M] (ProliFiler-140)): 1.2e-08 M and 1.18e-08 M | IC50 (Mia PaCA 2 (Pancreas), read-out: IC50 [M] (ProliFiler-140)): 3.75e-07 M and 3.8e-07 M | IC50 (NALM-6 (Blood), read-out: IC50 [M] (ProliFiler-140)): 5.58e-08 M and 5.6e-08 M | IC50 (NCI-H82 (Lung), read-out: IC50 [M] (ProliFiler-140)): 7.5e-07 M | IC50 (NCI-H292 (Lung), read-out: IC50 [M] (ProliFiler-140)): 2.6e-07 M and 2.59e-07 M | IC50 (NCI-H441 (Lung), read-out: IC50 [M] (ProliFiler-140)): 2.94e-07 M and 2.9e-07 M | IC50 (NCI-H838 (Lung), read-out: IC50 [M] (ProliFiler-140)): 7.5e-07 M and 7.54e-07 M | IC50 (NCI-H1048 (Lung), read-out: IC50 [M] (ProliFiler-140)): 5.9e-08 M and 5.92e-08 M | IC50 (NCI-H1437 (Lung), read-out: IC50 [M] (ProliFiler-140)): 3.01e-07 M and 3e-07 M | IC50 (NCI-H1563 (Lung), read-out: IC50 [M] (ProliFiler-140)): 1.7e-06 M and 1.69e-06 M | IC50 (NCI-H1573 (Lung), read-out: IC50 [M] (ProliFiler-140)): 1.1e-06 M and 1.07e-06 M | IC50 (NCI-H1581 (Lung), read-out: IC50 [M] (ProliFiler-140)): 4.32e-07 M and 4.3e-07 M | IC50 (NCI-H1703 (Lung), read-out: IC50 [M] (ProliFiler-140)): 8.1e-07 M and 8.15e-07 M | IC50 (NCI-H1838 (Lung), read-out: IC50 [M] (ProliFiler-140)): 8.2e-07 M and 8.19e-07 M | IC50 (NCI-H2009 (Lung), read-out: IC50 [M] (ProliFiler-140)): 4.22e-07 M and 4.2e-07 M | IC50 (NCI-H2110 (Lung), read-out: IC50 [M] (ProliFiler-140)): 1.4e-07 M and 1.44e-07 M | IC50 (NCI-H2286 (Lung), read-out: IC50 [M] (ProliFiler-140)): 1.2e-07 M and 1.25e-07 M | IC50 (NCI-N87 (Stomach), read-out: IC50 [M] (ProliFiler-140)): 1.1e-06 M and 1.15e-06 M | IC50 (OCI-AML3 (Blood), read-out: IC50 [M] (ProliFiler-140)): 1.3e-07 M and 1.33e-07 M | IC50 (OCI-AML5 (Blood), read-out: IC50 [M] (ProliFiler-140)): 3.4e-08 M and 3.39e-08 M | IC50 (OCI-LY19 (Blood), read-out: IC50 [M] (ProliFiler-140)): 1.53e-08 M and 1.5e-08 M | IC50 (OPM-2 (Blood), read-out: IC50 [M] (ProliFiler-140)): 6.61e-07 M and 6.6e-07 M | IC50 (OV56 (Ovary), read-out: IC50 [M] (ProliFiler-140)): 2.02e-07 M and 2e-07 M | IC50 (OVCAR-3 (Ovary), read-out: IC50 [M] (ProliFiler-140)): 1e-06 M and 1.02e-06 M | IC50 (OVCAR-3, read-out: IC50): 1e-06 M | IC50 (OVK18 (Ovary), read-out: IC50 [M] (ProliFiler-140)): 2e-07 M | IC50 (P31/FUJ (Blood), read-out: IC50 [M] (ProliFiler-140)): 1.9e-07 M and 1.88e-07 M | IC50 (PANC-1 (Pancreas), read-out: IC50 [M] (ProliFiler-140)): 1.4e-06 M and 1.38e-06 M | IC50 (PC3 (Prostate), read-out: IC50 [M] (ProliFiler-140)): 5.17e-07 M and 5.2e-07 M | IC50 (PC-9 (Lung), read-out: IC50 [M] (ProliFiler-140)): 1.1e-07 M and 1.14e-07 M | IC50 (RERF-LC-Ad2 (Lung), read-out: IC50 [M] (ProliFiler-140)): 7.8e-07 M and 7.84e-07 M | IC50 (RERF-LC-MS (Lung), read-out: IC50 [M] (ProliFiler-140)): 4.59e-07 M and 4.6e-07 M | IC50 (RKO (Colon), read-out: IC50 [M] (ProliFiler-140)): 2.98e-07 M and 3e-07 M | IC50 (RL95-2 (Endometrium), read-out: IC50 [M] (ProliFiler-140)): 7.43e-07 M and 7.4e-07 M | IC50 (RPMI 8226 (Blood), read-out: IC50 [M] (ProliFiler-140)): 3.38e-07 M and 3.4e-07 M | IC50 (RPMI 8226, read-out: IC50): 3.4e-07 M | IC50 (SCH (Stomach), read-out: IC50 [M] (ProliFiler-140)): 3.9e-07 M and 3.87e-07 M | IC50 (SCLC-21H (Lung), read-out: IC50 [M] (ProliFiler-140)): 1.58e-07 M and 1.6e-07 M | IC50 (SJSA-1 (Bone), read-out: IC50 [M] (ProliFiler-140)): 3.78e-07 M and 3.8e-07 M | IC50 (SK-BR-3 (Breast), read-out: IC50 [M] (ProliFiler-140)): 3.7e-07 M | IC50 (SK-ES-1 (Bone), read-out: IC50 [M] (ProliFiler-140)): 3.35e-08 M and 3.4e-08 M | IC50 (SK-LU-1 (Lung), read-out: IC50 [M] (ProliFiler-140)): 1.6e-07 M and 1.62e-07 M | IC50 (SK-MEL-3 (Skin), read-out: IC50 [M] (ProliFiler-140)): 1e-06 M and 1.03e-06 M | IC50 (SK-N-FI (Brain), read-out: IC50 [M] (ProliFiler-140)): 6.81e-07 M and 6.8e-07 M | IC50 (SK-N-MC (Brain), read-out: IC50 [M] (ProliFiler-140)): 1.3e-08 M and 1.33e-08 M | IC50 (SK-N-SH (Brain), read-out: IC50 [M] (ProliFiler-140)): 7.5e-07 M and 7.45e-07 M | IC50 (SK-OV3 (Ovary), read-out: IC50 [M] (ProliFiler-140)): 4.38e-07 M and 4.4e-07 M | IC50 (SK-OV3, read-out: IC50): 4.4e-07 M | IC50 (SNU840 (Ovary), read-out: IC50 [M] (ProliFiler-140)): 6.99e-08 M and 7e-08 M | IC50 (SNU-1 (Stomach), read-out: IC50 [M] (ProliFiler-140)): 2.3e-07 M and 2.27e-07 M | IC50 (SNU-16 (Stomach), read-out: IC50 [M] (ProliFiler-140)): 7.09e-07 M and 7.1e-07 M | IC50 (SNU-216 (Stomach), read-out: IC50 [M] (ProliFiler-140)): 1.84e-06 M and 1.8e-06 M | IC50 (SU-DHL-5 (Blood), read-out: IC50 [M] (ProliFiler-140)): 5e-08 M and 4.98e-08 M | IC50 (SW480 (Colon), read-out: IC50 [M] (ProliFiler-140)): 3.31e-07 M and 3.3e-07 M | IC50 (SW620 (Colon), read-out: IC50 [M] (ProliFiler-140)): 6.99e-07 M and 7e-07 M | IC50 (SW948 (Colon), read-out: IC50 [M] (ProliFiler-140)): 6.79e-07 M and 6.8e-07 M | IC50 (SW-1783 (Brain), read-out: IC50 [M] (ProliFiler-140)): 4.78e-07 M and 4.8e-07 M | IC50 (Saos-2 EC (Bone), read-out: IC50 [M] (ProliFiler-140)): 2.34e-07 M and 2.3e-07 M | IC50 (SiHa (Ovary), read-out: IC50 [M] (ProliFiler-140)): 6.13e-07 M and 6.1e-07 M | IC50 (T84 (Colon), read-out: IC50 [M] (ProliFiler-140)): 9.09e-07 M and 9.1e-07 M | IC50 (T98G (Brain), read-out: IC50 [M] (ProliFiler-140)): 6.6e-07 M | IC50 (T-47D (Breast), read-out: IC50 [M] (ProliFiler-140)): 1e-06 M and 1.04e-06 M | IC50 (T-47D, read-out: IC50): 1e-06 M | IC50 (U2OS (Bone), read-out: IC50 [M] (ProliFiler-140)): 1.31e-07 M and 1.3e-07 M | IC50 (U87MG (Brain), read-out: IC50 [M] (ProliFiler-140)): 1.2e-06 M and 1.22e-06 M | IC50 (U118MG (Brain), read-out: IC50 [M] (ProliFiler-140)): 3.92e-07 M and 3.9e-07 M | IC50 (U251MG (Brain), read-out: IC50 [M] (ProliFiler-140)): 2e-06 M | IC50 (U-266 (Blood), read-out: IC50 [M] (ProliFiler-140)): 1.41e-07 M and 1.4e-07 M | IC50 (U-937 (Blood), read-out: IC50 [M] (ProliFiler-140)): 7.39e-08 M and 7.4e-08 M | IC50 (ZR-75-1 (Breast), read-out: IC50 [M] (ProliFiler-140)): 1.42e-06 M and 1.4e-06 M | IC50 (read-out: IC50 [M] (ProliFiler-140)): 2.36e-07 M and 2.4e-07 M
